# Structures can show the parent of a compound that is named as a salt.
# Conditions: batch B (formoterol 7544MO) versus batch A (formoterol 7544MA); 160/4.5 μg product; same inhaler, budesonide and lactose
# Procedure: A pharmacokinetic (PK) clinical study was conducted. The PK study assessed a number of key formulation parameters, metered dose (device dose cup volume), formulation blend strength, drug substance particle size and lactose particle size, using a stepwise approach. The PK study was carried out on the middle strength product (160/4.5 μg). […] For both batch A and batch B, the inhaler, the budesonide and the lactose were the same.
smiles,measurement,value
"COc1ccc(CC(C)NCC(O)c2ccc(O)c(NC=O)c2)cc1 (stereo not shown) [7544MO, formoterol fumarate dihydrate]",lowering of formoterol Cmax,more than 20%
